Values quoted from earlier work, collected in patent publication US20130309333A1, “METHOD AND COMPOSITION FOR TREATING FELINE SKIN DISORDERS” (priority 2011, published 2013).

Tested on: cats
Details: general knowledge

With `Nc1cc(N2CCCCC2)nc(N)[n+]1[O-]` [minoxidil] as the compound, how does the toxicity to cats read?
The toxicity to cats was “highly toxic to cats”.
